Assay results as given in the supplement of paper PMC10307832.

Key:
Test in all cases: relative viability (nuclei count vs DMSO), 5 days (fraction); higher = more cells survive
201T = system: 201T
Procedure, shortened: (§1)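 The day after seeding in 1536-well plates, lung cancer cell lines were treated by pin tool with a single drug, or with a fixed anchor-drug dose together with five library-drug doses (not always all listed) in √10 steps. After 5 days, a combined fix-and-stain solution (final 0.05% Triton X-100, 1% formaldehyde, 1 ug/ml Hoechst) was added. Nuclei counted on 4× images gave relative viability as treated counts over vehicle counts, reported as the median of duplicate plates.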

BEN = system: BEN
Procedure, shortened: as §1

EPLC-272H = system: EPLC-272H
Procedure, shortened: as §1

HCC-15 = system: HCC-15
Procedure, shortened: as §1

HCC-78 = system: HCC-78
Procedure, shortened: as §1

LCLC-97TM1 = system: LCLC-97TM1
Procedure, shortened: as §1

LU99A = system: LU99A
Procedure, shortened: as §1

NCI-H1355 = system: NCI-H1355
Procedure, shortened: as §1

NCI-H2085 = system: NCI-H2085
Procedure, shortened: as §1

NCI-H2126 = system: NCI-H2126
Procedure, shortened: as §1

NCI-H2228 = system: NCI-H2228
Procedure, shortened: as §1

NCI-H23 = system: NCI-H23
Procedure, shortened: as §1

NCI-H2405 = system: NCI-H2405
Procedure, shortened: as §1

NCI-H322M = system: NCI-H322M
Procedure, shortened: as §1

NCI-H460 = system: NCI-H460
Procedure, shortened: as §1

NCI-H647 = system: NCI-H647
Procedure, shortened: as §1

NCI-H650 = system: NCI-H650
Procedure, shortened: as §1

NCI-H661 = system: NCI-H661
Procedure, shortened: as §1

NCI-H838 = system: NCI-H838
Procedure, shortened: as §1

PC-14 = system: PC-14
Procedure, shortened: as §1

Compound: Cc1cn(-c2cc(NC(=O)c3ccc(C)c(Nc4nccc(-c5cccnc5)n4)c3)cc(C(F)(F)F)c2)cn1 [Nilotinib] + C[C@@H](Oc1cc(-c2cnn(C3CCNCC3)c2)cnc1N)c1c(Cl)ccc(F)c1Cl [Crizotinib] (partner 1 µM)
- relative viability (201T; first compound 0.001 µM): 1.01
- relative viability (201T; first compound 0.003162 µM): 1.07
- relative viability (201T; first compound 0.01 µM): 0.91
- relative viability (201T; first compound 0.1 µM): 1.07
- relative viability (BEN; first compound 0.001 µM): 0.731
- relative viability (BEN; first compound 0.003162 µM): 0.978
- relative viability (BEN; first compound 0.01 µM): 1.21
- relative viability (BEN; first compound 0.1 µM): 0.971
- relative viability (EPLC-272H; first compound 0.001 µM): 0.942
- relative viability (EPLC-272H; first compound 0.003162 µM): 0.935
- relative viability (EPLC-272H; first compound 0.01 µM): 1.01
- relative viability (EPLC-272H; first compound 0.03162 µM): 0.831
- relative viability (EPLC-272H; first compound 0.1 µM): 0.917
- relative viability (HCC-15; first compound 0.001 µM): 0.723
- relative viability (HCC-15; first compound 0.003162 µM): 0.96
- relative viability (HCC-15; first compound 0.01 µM): 1.1
- relative viability (HCC-15; first compound 0.03162 µM): 0.58
- relative viability (HCC-15; first compound 0.1 µM): 0.687
- relative viability (HCC-78; first compound 0.001 µM): 0.351
- relative viability (HCC-78; first compound 0.003162 µM): 0.239
- relative viability (HCC-78; first compound 0.01 µM): 0.432
- relative viability (HCC-78; first compound 0.03162 µM): 0.333
- relative viability (HCC-78; first compound 0.1 µM): 0.361
- relative viability (LCLC-97TM1; first compound 0.001 µM): 0.246
- relative viability (LCLC-97TM1; first compound 0.003162 µM): 0.328
- relative viability (LCLC-97TM1; first compound 0.01 µM): 0.712
- relative viability (LCLC-97TM1; first compound 0.03162 µM): 0.311
- relative viability (LCLC-97TM1; first compound 0.1 µM): 0.469
- relative viability (LU99A; first compound 0.001 µM): 0.542
- relative viability (LU99A; first compound 0.003162 µM): 0.545
- relative viability (LU99A; first compound 0.01 µM): 0.629
- relative viability (LU99A; first compound 0.03162 µM): 0.429
- relative viability (LU99A; first compound 0.1 µM): 0.343
- relative viability (NCI-H1355; first compound 0.001 µM): 1.05
- relative viability (NCI-H1355; first compound 0.003162 µM): 1.15
- relative viability (NCI-H1355; first compound 0.01 µM): 1.38
- relative viability (NCI-H1355; first compound 0.03162 µM): 0.909
- relative viability (NCI-H1355; first compound 0.1 µM): 1.09
- relative viability (NCI-H2085; first compound 0.001 µM): 0.982
- relative viability (NCI-H2085; first compound 0.003162 µM): 0.895
- relative viability (NCI-H2085; first compound 0.01 µM): 0.971
- relative viability (NCI-H2085; first compound 0.03162 µM): 0.721
- relative viability (NCI-H2085; first compound 0.1 µM): 0.884
- relative viability (NCI-H2126; first compound 0.001 µM): 1.02
- relative viability (NCI-H2126; first compound 0.003162 µM): 1.23
- relative viability (NCI-H2126; first compound 0.01 µM): 1.39
- relative viability (NCI-H2126; first compound 0.03162 µM): 0.966
- relative viability (NCI-H2126; first compound 0.1 µM): 0.943
- relative viability (NCI-H2228; first compound 0.001 µM): 0.53
- relative viability (NCI-H2228; first compound 0.003162 µM): 0.418
- relative viability (NCI-H2228; first compound 0.01 µM): 0.606
- relative viability (NCI-H2228; first compound 0.03162 µM): 0.461
- relative viability (NCI-H2228; first compound 0.1 µM): 0.294
- relative viability (NCI-H23; first compound 0.001 µM): 0.471
- relative viability (NCI-H23; first compound 0.003162 µM): 0.442
- relative viability (NCI-H23; first compound 0.01 µM): 0.6
- relative viability (NCI-H23; first compound 0.03162 µM): 0.328
- relative viability (NCI-H23; first compound 0.1 µM): 0.378
- relative viability (NCI-H2405; first compound 0.001 µM): 0.854
- relative viability (NCI-H2405; first compound 0.003162 µM): 0.746
- relative viability (NCI-H2405; first compound 0.01 µM): 0.84
- relative viability (NCI-H2405; first compound 0.03162 µM): 0.747
- relative viability (NCI-H2405; first compound 0.1 µM): 0.857
- relative viability (NCI-H322M; first compound 0.001 µM): 1.06
- relative viability (NCI-H322M; first compound 0.003162 µM): 0.869
- relative viability (NCI-H322M; first compound 0.03162 µM): 0.727
- relative viability (NCI-H322M; first compound 0.1 µM): 0.984
- relative viability (NCI-H460; first compound 0.001 µM): 0.752
- relative viability (NCI-H460; first compound 0.003162 µM): 1.06
- relative viability (NCI-H460; first compound 0.01 µM): 1.56
- relative viability (NCI-H460; first compound 0.03162 µM): 0.245
- relative viability (NCI-H460; first compound 0.1 µM): 0.901
- relative viability (NCI-H647; first compound 0.001 µM): 1.05
- relative viability (NCI-H647; first compound 0.003162 µM): 1.34
- relative viability (NCI-H647; first compound 0.03162 µM): 0.749
- relative viability (NCI-H647; first compound 0.1 µM): 0.716
- relative viability (NCI-H650; first compound 0.001 µM): 0.637
- relative viability (NCI-H650; first compound 0.003162 µM): 0.551
- relative viability (NCI-H650; first compound 0.01 µM): 0.844
- relative viability (NCI-H650; first compound 0.03162 µM): 0.601
- relative viability (NCI-H650; first compound 0.1 µM): 0.715
- relative viability (NCI-H661; first compound 0.001 µM): 0.879
- relative viability (NCI-H661; first compound 0.003162 µM): 1.12
- relative viability (NCI-H661; first compound 0.01 µM): 1.03
- relative viability (NCI-H661; first compound 0.03162 µM): 0.945
- relative viability (NCI-H661; first compound 0.1 µM): 0.93
- relative viability (NCI-H838; first compound 0.001 µM): 0.896
- relative viability (NCI-H838; first compound 0.003162 µM): 0.81
- relative viability (NCI-H838; first compound 0.01 µM): 1.03
- relative viability (NCI-H838; first compound 0.03162 µM): 0.673
- relative viability (NCI-H838; first compound 0.1 µM): 0.926
- relative viability (PC-14; first compound 0.001 µM): 0.871
- relative viability (PC-14; first compound 0.003162 µM): 0.941
- relative viability (PC-14; first compound 0.01 µM): 1.11
- relative viability (PC-14; first compound 0.03162 µM): 0.861
- relative viability (PC-14; first compound 0.1 µM): 0.945
